From patent publication US9340819B2, “Method for detecting the presence of carbapenemase-producing bacteria in a sample” (priority 2011, dated 2016)

What was measured:
[1] = test system: S. marcescens; assay: MIC of carbapenem by Etest (Example 2); format: cell-based, Serratia marcescens
Experimental: (§1) All strains had previously been characterized for their β-lactamase content at the molecular level. Minimum inhibitory concentration of carbapenem were determined using the Etest® (AB bioMérieux, Solna, Sweden) and results were recorded according to US guidelines (CLSI), as updated in 2011.

[2] = test system: P. rettgeri; assay: MIC of carbapenem by Etest (Example 2); format: cell-based, Proteus rettgeri
Experimental: as §1

[3] = test system: E. asburiae; assay: MIC of carbapenem by Etest (Example 2); format: cell-based, Enterobacter asburiae; conditions: E. asburiae IMI-2, n=1
Experimental: as §1

[4] = test system: E. coli; assay: MIC of carbapenem by Etest (Example 2); format: cell-based, Escherichia coli
Experimental: as §1

[5] = test system: P. rettgeri; assay: MIC by Etest on Mueller-Hinton agar (Example 1); format: cell-based, Proteus rettgeri; conditions: Providencia rettgeri; P. rettgeri RAP (9); OXA-181 + OXA-1
Experimental: (§2) Prior to performing the method of the invention, susceptibility testings were performed by determining Minimum Inhibitory Concentration (MIC) values by the Etest® (AB bioMérieux; Solna, Sweden) on Mueller-Hinton agar plates at 37° C. and results of susceptibility testing were recorded according to the Clinical and Laboratory Standards Institute (CLSI) guidelines as modified in June 2010 (18). The breakpoints for imipenem are S≦1 μg/ml (susceptibility) and R≧4 μg/ml (resistant). As for those for ertapenem, they are S≦0.25 μg/ml and R≧1 μg/ml (see Tables 1 and 2).

[6] = test system: P. stuartii; assay: MIC of carbapenem by Etest (Example 2); format: cell-based, Providencia stuartii; conditions: P. stuartii NDM-1, n=1
Experimental: as §1

[7] = test system: C. freundii; assay: MIC of carbapenem by Etest (Example 2); format: cell-based, Citrobacter freundii
Experimental: as §1

[8] = test system: E. cloacae; assay: MIC of carbapenem by Etest (Example 2); format: cell-based, Enterobacter cloacae
Experimental: as §1

[9] = test system: P. mirabilis; assay: MIC of carbapenem by Etest (Example 2); format: cell-based, Proteus mirabilis; conditions: Plasmid mediated AmpC or chromosomal AmpC + decreased membrane permeability; P. mirabilis ACC-1, n=1
Experimental: as §1

[10] = test system: P. stuartii; assay: MIC by Etest on Mueller-Hinton agar (Example 1); format: cell-based; conditions: Providencia stuartii, NDM-1 + OXA-1 + CMY-6
Experimental: as §2

[11] = test system: C. freundii; assay: MIC by Etest on Mueller-Hinton agar (Example 1); format: cell-based; conditions: Citrobacter freundii; C. freundii STE (13); NDM-1 + OXA-1 + OXA-9 + OXA-10 + CTX-M-15 + TEM-1
Experimental: as §2

[12] = test system: E. cloacae; assay: MIC by Etest on Mueller-Hinton agar (Example 1); format: cell-based; conditions: Enterobacter cloacae
Experimental: as §2

[13] = test system: K. pneumoniae; assay: MIC by Etest on Mueller-Hinton agar (Example 1); format: cell-based; conditions: Klebsiella pneumoniae
Experimental: as §2

[14] = test system: P. mirabilis; assay: MIC by Etest on Mueller-Hinton agar (Example 1); format: cell-based; conditions: Proteus mirabilis, plasmid mediated cephalosporinase ACC-1
Experimental: as §2

[15] = test system: E. aerogenes; assay: MIC of carbapenem by Etest (Example 2); format: cell-based, Enterobacter aerogenes
Experimental: as §1

[16] = test system: E. coli; assay: MIC by Etest on Mueller-Hinton agar (Example 1); format: cell-based, Escherichia coli; conditions: for MIC: Escherichia coli
Experimental: as §2

C[C@@H](O)[C@H]1C(=O)N2C(C(=O)O)=C(S[C@@H]3CN[C@H](C(=O)Nc4cccc(C(=O)O)c4)C3)[C@H](C)[C@H]12 [ERT, ertapenem]
0.75 µg/mL: MIC ([12]; E. cloacae CON (26), overexpression of chromosomal cephalosporinase AmpC) | MIC ([13]; K. pneumoniae BER (28), porin deficiency associated with ESBL, TEM) | MIC ([13]; K. pneumoniae COO (27), porin deficiency associated with ESBL, CTX-M-15 + SHV-28)
0.19 µg/mL: MIC ([12]; E. cloacae 2185, ESBL OXA-163) | MIC ([12]; E. cloacae (17), ESBL CTX-M-15) | MIC ([12]; E. cloacae, ESBL VEB-1) | MIC ([13]; CIP53153, K. pneumoniae CIP53153 (30), wild-type) | MIC ([13]; K. pneumoniae 6299 (19), ESBL OXA-163) | MIC ([13]; K. pneumoniae (16), ESBL CTX-M-15) | MIC [14]
1 mg/L: MICs range ([2]; P. rettgeri OXA-181, n=1)
8 µg/mL: MIC ([13]; K. pneumoniae IND, NDM-1 + OXA-1 + CTX-M-15) | MIC ([13]; K. pneumoniae SAB, NDM-1) | MIC ([16]; E. coli 271 AUS (12), NDM-1 + CTX-M-15 + TEM-1) | MIC ([16]; E. coli ALL, NDM-1 + OXA-1 + OXA-2 + CTX-M-15 + TEM-1) | MIC ([16]; E. coli RIC, NDM-1 + OXA-1 + OXA-10 + CMY-16)
0.38 to 1.5 mg/L: MICs range ([4]; E. coli VIM-1, n=2)
3 µg/mL: MIC ([13]; K. pneumoniae EGY, OXA-48 + CTX-M-15) | MIC ([13]; K. pneumoniae H1516-6 COL (3), KPC-2 + TEM-1 + CTXM-15) | MIC ([16]; E. coli MAD, IMP-1)
1.5 µg/mL: MIC ([16]; E. coli BOU, OXA-48 + CTX-M-15) | MIC ([16]; E. coli HAN (7), OXA-48)
0.5 to 1^ mg/L: MICs range ([8]; E. cloacae IMP-8, n=2)
0.38 mg/L: MICs range ([4]; Plasmid mediated AmpC or chromosomal AmpC + decreased membrane permeability, E. coli CMY-10, n=1) | MICs range [6]
>32 mg/L: MICs range ([1]; S. marcescens IMP-1, n=2) | MICs range ([1]; S. marcescens IMP-11, n=1) | MICs range ([1]; S. marcescens KPC-2, n=2) | MICs range ([1]; S. marcescens VIM-2, n=1) | MICs range [3] | MICs range ([4]; Plasmid mediated AmpC or chromosomal AmpC + decreased membrane permeability, E. coli Overexpressed cephalosporinase, n=1) | MICs range ([7]; C. freundii NDM-1, n=1) | MICs range ([8]; E. cloacae GES-5, n=1) | MICs range ([8]; E. cloacae IMP-1, n=12) | MICs range ([8]; E. cloacae NMC-A, n=1) | MICs range ([15]; E. aerogenes KPC-2, n=1)
1 µg/mL: MIC ([12]; E. cloacae TUR (6), OXA-48 + SHV-5) | MIC ([13]; K. pneumoniae CHA (5), OXA-48 + TEM-1) | MIC ([13]; K. pneumoniae HOL, OXA-181 + CTX-M-15)
4 µg/mL: MIC ([13]; K. pneumoniae BEL, OXA-48)
16 mg/L: MICs range ([4]; E. coli VIM-19, n=1) | MICs range ([8]; E. cloacae NDM-1, n=1)
0.5 to 1.5 mg/L: MICs range ([4]; E. coli VIM-2, n=2)
0.5 µg/mL: MIC ([12]; E. cloacae ARF (25), overexpression of chromosomal cephalosporinase AmpC) | MIC ([12]; E. cloacae BLA, overexpression of chromosomal cephalosporinase AmpC) | MIC ([16]; E. coli COL (2), KPC-2) | MIC ([16]; E. coli MAD (14), VIM-1 + CTX-M-3)
2 µg/mL: MIC [5] | MIC ([13]; K. pneumoniae BIC (4), OXA-48) | MIC ([13]; K. pneumoniae MAD (15), IMP-13) | MIC ([13]; K. pneumoniae OMA (8), OXA-181 + CTXM-15 + OXA-1) | MIC ([13]; K. pneumoniae RAM, OXA-48) | MIC ([16]; E. coli DIH, VIM-19) | MIC ([16]; E. coli PSP, KPC-2)
0.5 to 16 mg/L: MICs range ([4]; E. coli OXA-48, n=6) | MICs range ([8]; E. cloacae OXA-48, n=3)
1.5 to 32 mg/L: MICs range ([8]; E. cloacae KPC-2, n=7)
4 mg/L: MICs range ([1]; S. marcescens SME-1, n=1) | MICs range ([1]; S. marcescens SME-2, n=1) | MICs range ([15]; Plasmid mediated AmpC or chromosomal AmpC + decreased membrane permeability, E. aerogenes Overexpressed cephalosporinase, n=1)
8 mg/L: MICs range ([4]; E. coli IMP-8, n=1) | MICs range ([7]; ESBL + decreased membrane permeability, C. freundii TEM-3, n=1)
0.5 mg/L: MICs range ([2]; P. rettgeri NDM-1, n=1)
3 to 4 mg/L: MICs range ([4]; E. coli IMP-1, n=2)
> 32 µg/mL: MIC [10] | MIC [11] | MIC ([12]; E. cloacae IR38, NDM-1 + CTX-M-15) | MIC ([13]; K. pneumoniae 1 OMA (11), NDM-1 + CTX-M-15 + OXA-1 + OXA-9) | MIC ([13]; K. pneumoniae 2 OMA, NDM-1 + OXA-1) | MIC ([13]; K. pneumoniae 7 AFR, NDM-1 + OXA-1 + CTX-M-15 + CMY-6 + TEM-1) | MIC ([13]; K. pneumoniae MAD, VIM-1 + CTX-M-3) | MIC ([16]; E. coli DIN, KPC)
6 µg/mL: MIC ([12]; E. cloacae (1), KPC-2)
0.06 µg/mL: MICs ([16]; E. coli Ec13 SYD (23), plasmid mediated cephalosporinase CMY-2) | MICs ([16]; E. coli J53 (29), wild-type) | MICs ([16]; E. coli VMC (24), plasmid mediated cephalosporinase CMY-10) | MIC ([16]; E. coli (18), ESBL CTX-M-14) | MIC ([16]; E. coli (20), ESBL VEB-1) | MIC ([16]; E. coli FOR, ESBL CTX-M-15)
0.12 mg/L: MICs range ([4]; ESBLs, E. coli CTX-M-1, n=1) | MICs range ([4]; ESBLs, E. coli CTX-M-3, n=1) | MICs range ([4]; ESBLs, E. coli CTX-M-14, n=2) | MICs range ([4]; ESBLs, E. coli CTX-M-15, n=2) | MICs range ([4]; ESBLs, E. coli VEB-1, n=1) | MICs range ([4]; Plasmid mediated AmpC or chromosomal AmpC + decreased membrane permeability, E. coli ACC-1, n=1) | MICs range ([4]; Plasmid mediated AmpC or chromosomal AmpC + decreased membrane permeability, E. coli CMY-2, n=1) | MICs range ([4]; Plasmid mediated AmpC or chromosomal AmpC + decreased membrane permeability, E. coli DHA-1, n=1) | MICs range ([4]; Plasmid mediated AmpC or chromosomal AmpC + decreased membrane permeability, E. coli Extended spectrum cephalosporinase, n=1) | MICs range ([8]; ESBLs, E. cloacae CTX-M-15, n=3) | MICs range ([8]; ESBLs, E. cloacae VEB-1, n=1) | MICs range [9]
32 µg/mL: MIC ([13]; K. pneumoniae 6759 GEN, NDM-1 + CTX-M-15 + OXA-1 + OXA-9 + OXA-10 + CMY16) | MIC ([13]; K. pneumoniae DIN, NDM-1) | MIC ([13]; K. pneumoniae UK (10), NDM-1 + CTX-M-15 + CMY-4 + OXA-1) | MIC ([16]; E. coli 5649 GEN, NDM-1 + OXA-1 + CMY-30 + TEM-1)
